In patent publication US9169254B2, “Spiroimidazolone derivative” (Chugai Seiyaku Kabushiki Kaisha, priority 2009, dated 2015):

Biological target: T1, human PTH1 receptor (Homo sapiens, UniProt Q03431)
T1 sequence (Q03431 27-593): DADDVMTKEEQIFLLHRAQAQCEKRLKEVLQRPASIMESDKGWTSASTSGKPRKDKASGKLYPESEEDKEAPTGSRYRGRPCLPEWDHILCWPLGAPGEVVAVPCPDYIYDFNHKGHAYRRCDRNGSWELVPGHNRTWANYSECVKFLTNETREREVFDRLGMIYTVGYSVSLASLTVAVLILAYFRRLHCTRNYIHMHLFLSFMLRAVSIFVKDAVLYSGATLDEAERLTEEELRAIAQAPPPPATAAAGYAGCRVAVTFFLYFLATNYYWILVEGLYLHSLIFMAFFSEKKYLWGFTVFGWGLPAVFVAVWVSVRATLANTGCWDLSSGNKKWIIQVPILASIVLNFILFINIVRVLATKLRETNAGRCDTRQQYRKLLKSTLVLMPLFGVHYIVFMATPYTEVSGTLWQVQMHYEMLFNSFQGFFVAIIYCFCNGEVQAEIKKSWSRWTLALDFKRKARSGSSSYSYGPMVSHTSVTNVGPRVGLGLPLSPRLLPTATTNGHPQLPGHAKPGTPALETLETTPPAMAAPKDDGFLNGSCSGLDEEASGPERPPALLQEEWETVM
Assay: In vitro cAMP signal activity in HKRK-B7 cells (LLC-PK1 cells overexpressing the human PTH1 receptor)
Format: cell-based
Conditions: HKRK-B7 cells; compound at 1×10^−3 M; cAMP produced as percentage of that produced by hPTH(1-34) at 100 nM

Question: `Cc1cc(C(=O)N2CCN(CCO)CC2)ccc1CCS(=O)(=O)N1CCC2(CC1)N=C(c1cccc(OC(F)(F)F)c1)NC2=O` [Compound 416, 8-(2-{4-[4-(2-Hydroxy-ethyl)-piperazine-1-carbonyl]-2-methyl-phenyl}-ethanesulfonyl)-2-(3-trifluoromethoxy-phenyl)-1,3,8-triaza-spiro[4.5]dec-1-en-4-one] was tested. Which “cAMP production activity (%)” value did it give?
Answer: The value was 66%.

Question: With `Cc1cc(C(=O)N2CCC(O)(CF)CC2)cc(C)c1/C=C/S(=O)(=O)N1CCC2(CC1)N=C(c1ccc(F)c(Cl)c1)NC2=O` [Compound 1242, 2-(3-chloro-4-fluoro-phenyl)-8-{(E)-2-[4-(4-fluoromethyl-4-hydroxy-piperidine-1-carbonyl)-2,6-dimethyl-phenyl]-ethenesulfonyl}-1,3,8-triaza-spiro[4.5]dec-1-en-4-one] as the molecule, how does the “cAMP production activity (%)” value read?
Answer: The value was 106%.

Question: Which “cAMP production activity (%)” value does the source give for `Cc1cc(CNC(=O)OC(C)(C)C)ccc1CCS(=O)(=O)N1CCC2(CC1)N=C(C1CCC(CCC(F)(F)F)CC1)NC2=O` (centres unmarked) [Compound 928, [3-Methyl-4-(2-{4-oxo-2-[4-(3,3,3-trifluoro-propyl)-cyclohexyl]-1,3,8-triaza-spiro[4.5]dec-1-ene-8-sulfonyl}-ethyl)-benzyl]-carbamic acid tert-butyl ester] here?
Answer: The value was 51%.

Question: Which “cAMP production activity (%)” value does the source give for `Cc1cc(C(=O)N(C)C)ccc1-c1cccc(S(=O)(=O)N2CCC3(CC2)N=C(c2cccc(OC(F)(F)F)c2)NC3=O)c1` [Compound 335, 2-methyl-3′-[4-oxo-2-(3-trifluoromethoxy-phenyl)-1,3,8-triaza-spiro[4.5]dec-1-ene-8-sulfonyl]-biphenyl-4-carboxylic acid dimethylamide] here?
Answer: The value was 28%.

Question: For `O=C1NC(C2CCCCC2)=NC12CCN(S(=O)(=O)CCc1ccc3c(ccn3CCOCCO)c1)CC2` [Compound 838, 2-cyclohexyl-8-(2-{1-[2-(2-hydroxy-ethoxy)-ethyl]-1H-indol-5-yl}-ethanesulfonyl)-1,3,8-triaza-spiro[4.5]dec-1-en-4-one], which “cAMP production activity (%)” value is on record?
Answer: Its value is 75%.

Question: How did the “cAMP production activity (%)” value turn out when `O=C1NC(C2CCCCC2)=NC12CCN(S(=O)(=O)/C=C/c1cccc3cc[nH]c13)CC2` [Compound 479, 2-cyclohexyl-8-[(E)-2-(1H-indol-7-yl)-ethenesulfonyl]-1,3,8-triaza-spiro[4.5]dec-1-en-4-one] was run?
Answer: Its value is 15%.

Question: How did the “cAMP production activity (%)” value turn out when `O=C1NC(c2cccc(OC(F)(F)F)c2)=NC12CCN(S(=O)(=O)CCc1cc(F)c(OCCC(O)CO)c(F)c1)CC2` (centres unmarked) [Compound 860, 8-{2-[4-(3,4-dihydroxy-butoxy)-3,5-difluoro-phenyl]-ethanesulfonyl}-2-(3-trifluoromethoxy-phenyl)-1,3,8-triaza-spiro[4.5]dec-1-en-4-one] was run?
Answer: Its value is 50%.

Question: For `Cc1cc(C(=O)N(C)C)ccc1CCS(=O)(=O)N1CCC2(CC1)N=C(/C=C/c1cccc(C(F)(F)F)c1)NC2=O` [Compound 892, 3,N,N-trimethyl-4-(2-{4-oxo-2-[(E)-2-(3-trifluoromethyl-phenyl)-vinyl]-1,3,8-triaza-spiro[4.5]dec-1-ene-8-sulfonyl}-ethyl)-benzamide], which “cAMP production activity (%)” value is on record?
Answer: The value was 51%.

Question: `Cc1cc(C(=O)N2CCC(O)(CF)CC2)cc(C)c1/C=C/S(=O)(=O)N1CCC2(CC1)N=C(c1ccc(OCC(F)(F)C(F)F)c(Cl)c1)NC2=O` [Compound 1247, 2-[3-chloro-4-(2,2,3,3-tetrafluoro-propoxy)-phenyl]-8-{(E)-2-[4-(4-fluoromethyl-4-hydroxy-piperidine-1-carbonyl)-2,6-dimethyl-phenyl]-ethenesulfonyl}-1,3,8-triaza-spiro[4.5]dec-1-en-4-one] was tested. Which “cAMP production activity (%)” value did it give?
Answer: Its value is 70%.

Question: With `Cc1cc(C(=O)N(C)C)ccc1CCS(=O)(=O)N1CCC2(CC1)N=C(c1cccc(C(F)(F)F)c1)NC2=O` [Compound 86, 3,N,N-trimethyl-4-{2-[4-oxo-2-(3-trifluoromethyl-phenyl)-1,3,8-triaza-spiro[4.5]dec-1-ene-8-sulfonyl]-ethyl}-benzamide] as the molecule, how does the “cAMP production activity (%)” value read?
Answer: The value was 66%.

Question: Which “cAMP production activity (%)” value does the source give for `Cc1cc2c(/C=C/S(=O)(=O)N3CCC4(CC3)N=C(C3CCCCC3)NC4=O)cccc2[nH]1` [Compound 637, 2-Cyclohexyl-8-[(E)-2-(2-methyl-1H-indol-4-yl)-ethenesulfonyl]-1,3,8-triaza-spiro[4.5]dec-1-en-4-one] here?
Answer: The value was 38%.

Question: `Cc1cc(N2C(=O)C(C)(C)C[C@@H]2CO)cc(C)c1/C=C/S(=O)(=O)N1CCC2(CC1)N=C(c1cccc(OC(F)(F)F)c1)NC2=O` [Compound 712, 8-{(E)-2-[4-((R)-5-hydroxymethyl-3,3-dimethyl-2-oxo-pyrrolidin-1-yl)-2,6-dimethyl-phenyl]-ethenesulfonyl}-2-(3-trifluoromethoxy-phenyl)-1,3,8-triaza-spiro[4.5]dec-1-en-4-one] was tested. Which “cAMP production activity (%)” value did it give?
Answer: Its value is 16%.

Question: For `Cc1cc(N2CCC(=O)NC2=O)cc(C)c1/C=C/S(=O)(=O)N1CCC2(CC1)N=C(C1CCC(C)CC1)NC2=O` (centres unmarked) [Compound 587, 1-(3,5-dimethyl-4-{(E)-2-[2-(4-methyl-cyclohexyl)-4-oxo-1,3,8-triaza-spiro[4.5]dec-1-ene-8-sulfonyl]-vinyl}-phenyl)-dihydro-pyrimidine-2,4-dione], which “cAMP production activity (%)” value is on record?
Answer: The value was 53%.

Question: How did the “cAMP production activity (%)” value turn out when `CC(C)(C)CC(=O)N1CCCC(C2=NC3(CCN(S(=O)(=O)c4cccc(Cl)c4)CC3)C(=O)N2)C1` (centres unmarked) [Compound 423, 8-(3-Chloro-benzenesulfonyl)-2-[1-(3,3-dimethyl-butyryl)-piperidin-3-yl]-1,3,8-triaza-spiro[4.5]dec-1-en-4-one] was run?
Answer: Its value is 42%.

Question: With `Cc1cc(N2C(=O)C[C@H](NC(=O)OC(C)(C)C)C2=O)ccc1/C=C/S(=O)(=O)N1CCC2(CC1)N=C(c1cccc(C(F)(F)F)c1)NC2=O` [Compound 525, [(S)-1-(3-methyl-4-{(E)-2-[4-oxo-2-(3-trifluoromethyl-phenyl)-1,3,8-triaza-spiro[4.5]dec-1-ene-8-sulfonyl]-vinyl}-phenyl)-2,5-dioxo-pyrrolidin-3-yl]-carbamic acid tert-butyl ester] as the molecule, how does the “cAMP production activity (%)” value read?
Answer: Its value is 14%.

Question: Which “cAMP production activity (%)” value does the source give for `Cc1cc(N2C(=O)CNC2=O)ccc1CCS(=O)(=O)N1CCC2(CC1)N=C(C1CC(C)(C)CC(C)(C)C1)NC2=O` [Compound 952, 3-(3-methyl-4-{2-[4-oxo-2-(3,3,5,5-tetramethyl-cyclohexyl)-1,3,8-triaza-spiro[4.5]dec-1-ene-8-sulfonyl]-ethyl}-phenyl)-imidazolidine-2,4-dione] here?
Answer: Its value is 95%.

Question: `Cc1cc(OCCC(O)CO)cc(C)c1CCS(=O)(=O)N1CCC2(CC1)N=C(c1cccc(OC(F)(F)F)c1)NC2=O` (centres unmarked) [Compound 676, 8-{2-[4-(3,4-dihydroxy-butoxy)-2,6-dimethyl-phenyl]-ethanesulfonyl}-2-(3-trifluoromethoxy-phenyl)-1,3,8-triaza-spiro[4.5]dec-1-en-4-one] was tested. Which “cAMP production activity (%)” value did it give?
Answer: Its value is 69%.

Question: For `Cc1cc(C(=O)N2CCC(O)CC2)ccc1/C=C/S(=O)(=O)N1CCC2(CC1)N=C(c1cccc(OC(F)(F)F)c1)NC2=O` [Compound 230, 8-{(E)-2-[4-(4-hydroxy-piperidine-1-carbonyl)-2-methyl-phenyl]-ethenesulfonyl}-2-(3-trifluoromethoxy-phenyl)-1,3,8-triaza-spiro[4.5]dec-1-en-4-one], which “cAMP production activity (%)” value is on record?
Answer: The value was 66%.

Question: With `Cc1cc(N(C)c2ncc[nH]2)cc(C)c1/C=C/S(=O)(=O)N1CCC2(CC1)N=C(C1CCC(C)CC1)NC2=O` (centres unmarked) [Compound 586, 8-((E)-2-{4-[(1H-imidazol-2-yl)-methyl-amino]-2,6-dimethyl-phenyl}-ethenesulfonyl)-2-(4-methyl-cyclohexyl)-1,3,8-triaza-spiro[4.5]dec-1-en-4-one] as the molecule, how does the “cAMP production activity (%)” value read?
Answer: The value was 82%.

Question: How did the “cAMP production activity (%)” value turn out when `Cc1cc(C(=O)N2CCC(C)(O)CC2)cc(C)c1/C=C/S(=O)(=O)N1CCC2(CC1)N=C(c1ccc(Cl)c(OCC(F)(F)C(F)F)c1)NC2=O` [Compound 1229, 2-[4-chloro-3-(2,2,3,3-tetrafluoro-propoxy)-phenyl]-8-{(E)-2-[4-(4-hydroxy-4-methyl-piperidine-1-carbonyl)-2,6-dimethyl-phenyl]-ethenesulfonyl}-1,3,8-triaza-spiro[4.5]dec-1-en-4-one] was run?
Answer: The value was 56%.

Question: Which “cAMP production activity (%)” value does the source give for `CCc1cc(NC(C)=O)ccc1/C=C/S(=O)(=O)N1CCC2(CC1)N=C(C1CCC(C)CC1)NC2=O` (centres unmarked) [Compound 510, N-(3-ethyl-4-{(E)-2-[2-(4-methyl-cyclohexyl)-4-oxo-1,3,8-triaza-spiro[4.5]dec-1-ene-8-sulfonyl]-vinyl}-phenyl)-acetamide] here?
Answer: The value was 57%.

Question: `Cc1cc(NCC(=O)N2CCN(C)CC2)ccc1CCS(=O)(=O)N1CCC2(CC1)N=C(c1cccc(OC(F)(F)F)c1)NC2=O` [Compound 845, 8-(2-{2-methyl-4-[2-(4-methyl-piperazin-1-yl)-2-oxo-ethylamino]-phenyl}-ethanesulfonyl)-2-(3-trifluoromethoxy-phenyl)-1,3,8-triaza-spiro[4.5]dec-1-en-4-one] was tested. Which “cAMP production activity (%)” value did it give?
Answer: Its value is 68%.

Question: How did the “cAMP production activity (%)” value turn out when `CCC[C@@H]1CCC[C@H](C2=NC3(CCN(S(=O)(=O)CCc4c(C)cc(N(C)C(N)=O)cc4C)CC3)C(=O)N2)C1` [Compound 1343, 1-(3,5-dimethyl-4-{2-[4-oxo-2-((1S,3R)-3-propyl-cyclohexyl)-1,3,8-triaza-spiro[4.5]dec-1-ene-8-sulfonyl]-ethyl}-phenyl)-1-methyl-urea] was run?
Answer: The value was 98%.
